Bounds are passed on as bounds.

In data set [1] the test system is HDAC. Put plainly: In vivo PET imaging: blocking of whole brain uptake of the radiolabeled compound of Example 3. Also on record: species or system rat. As to the method: Male Sprague-Dawley rats were utilized in pairs, anesthetized with inhalational isoflurane (Forane) at 3% in a carrier of 1.5-2 L/min medical oxygen and maintained at 2% isoflurane for the duration of the scan. The rats were arranged head-to-head in a Triumph Trimodality PET/CT/SPECT scanner (Gamma Medica, Northridge, Calif.). Rats were injected standard references or vehicle via a lateral tail vein catheterization at the start of Positron Emission Tomography (PET) acquisition. Dynamic PET acquisition lasted for 60 min and was followed by computed tomography (CT) for anatomic co-registration. PET data were reconstructed using a 3D-MLEM method resulting in a full width at half-maximum resolution of 1 mm. Reconstructed images were exported from the scanner in DICOM format along with an anatomic CT for rodent studies. These files were imported to PMOD (PMOD Technologies, Ltd.) and manually coregistered using six degrees of freedom.
Volumes of interest (VOIs) were drawn manually as spheres in brain regions guided by high resolution CT structural images and summed PET data, with a radius no less than 1 mm to minimize partial volume effects. Time-activity curves (TACs) were exported in terms of decay corrected activity per unit volume at specified time points with gradually increasing intervals. The TACs were expressed as percent injected dose per unit volume for analysis.
Summed PET images following injection with the ^11C radiolabeled (E)-3-(4-((((1r,3R,5S)-adamantan-1-ylmethyl)(methyl)amino)methyl)phenyl)-N-hydroxyacrylamide (Example 3) at baseline or after 5 minutes pretreatment with 0.5 or 2.0 mg/kg unlabeled (E)-3-(4-((((1 r,3R,5 S)-adamantan-1-ylmethyl) (methyl)amino)methyl)phenyl)-N-hydroxyacrylamide illustrate brain uptake and self-blocking, as shown in FIG. 1A. Whole-brain tracer uptake levels, normalized to uptake at 10 min, were altered by 10-40% in self-blocking experiments with 5 min pretreatment with 1.0 μg-2.0 mg/kg unlabeled (E)-3-(4-((((1r,3R,5S)-adamantan-1-ylmethyl) (methyl)amino)methyl)phenyl)-N-hydroxyacrylamide, as shown in FIGS. 1B and 1C. This quantification provides a means to measure occupancy of HDAC targets on the basis of blocked binding of the radiolabeled compound of Example 3.
Whole brain uptake of the radiotracer of Example 3 was measured 4 h after acute systemic treatment.

The test system of data set [2] is rats. Put plainly: Forced swim test. The format is in vivo, rat. Particulars: 0.1 mg/kg i.p., against vehicle-treated controls, 5-min FST session. As to the method: (§1) Behavioral testing was applied to a cohort of 12 rats. Following 7 days of daily i.p. treatment with i) vehicle (10% DMSO, 10% Tween 80, 80% saline; 2 mL/kg); or solubilized ii) the compound of Example 2 (0.025 mg/kg) or iii) the compound of Example 2 (0.1 mg/kg), rats were exposed to the modified forced swim test (FST). Briefly, FST exposure (15 min exposure, 25° C. tap water, 30 cm water depth) was performed 18-24 h after the previous i.p. treatment, after which rats were returned to their home cages to dry for approximately 2-3 h, then given daily i.p. treatment as before. FST testing was performed one day later (5 min test, 25° C. tap water, 30 cm water depth) with behaviors digitally recorded for subsequent analysis of immobility by a trained reviewer, blinded to treatment groups. Rats were returned to home cages and monitored without treatment for 72 h. […] Animals were then evaluated for locomotor activity in an open field (60 cm square) using automated tracking software (MedAssociates).
(§2) Rats were exposed to a 15 min session of forced swimming in 25° C. water (20 cm diameter cylinder, 30 cm water depth). […] After 1 day, rats were tested for immobility time during 5-min FST sessions which were videotaped and scored by a trained observer blinded to treatment groups.

Data set [3] relates to rats. Put plainly: Open field activity test. It is filed as in vivo, rat. Conditions: 20-fold higher doses relative to the FST tests (0.5 and 2.0 mg/kg i.p.), relative to vehicle-treated controls. As to the method: Behavioral testing was applied to a cohort of 12 rats. Following 7 days of daily i.p. treatment with i) vehicle (10% DMSO, 10% Tween 80, 80% saline; 2 mL/kg); or solubilized ii) the compound of Example 2 (0.025 mg/kg) or iii) the compound of Example 2 (0.1 mg/kg), rats were exposed to the modified forced swim test (FST). Briefly, FST exposure (15 min exposure, 25° C. tap water, 30 cm water depth) was performed 18-24 h after the previous i.p. treatment, after which rats were returned to their home cages to dry for approximately 2-3 h, then given daily i.p. treatment as before. FST testing was performed one day later (5 min test, 25° C. tap water, 30 cm water depth) with behaviors digitally recorded for subsequent analysis of immobility by a trained reviewer, blinded to treatment groups. Rats were returned to home cages and monitored without treatment for 72 h. Rats were then treated for 7 additional days with i) vehicle, ii) the compound of Example 2 (0.5 mg/kg) or iii) the compound of Example 2 (2.0 mg/kg) via daily i.p. injection; treatment assignments for each rat remained the same with a 20× increase in dose of the compound of Example 2. Animals were then evaluated for locomotor activity in an open field (60 cm square) using automated tracking software (MedAssociates). […]

The nature of data set [4]: Weight gain of rats during treatment. The format is in vivo, rat. Particulars: daily i.p. treatment. As to the method: as §1, §2

For `CN(Cc1ccc(/C=C/C(=O)Nc2ccccc2N)cc1)CC12CC3CC(CC(C3)C1)C2` [Example 2, (E)-3-(4-((((3r,5r,7r)-adamantan-1-ylmethyl)(methyl)amino)methyl)phenyl)-N-(2-aminophenyl)acrylamide], the “block of whole brain tracer uptake” value in data set [1] (0.1 mg/kg (lowest tested dosage), 4 h after acute systemic treatment, radiotracer of Example 3, relative to vehicle-blocked baseline) was 25%. Besides, in data set [1] (0.1 mg/kg i.p., based on PET imaging experiments), the “HDAC occupancy in the brain” value was approximately 25%. The “tracer uptake returning to baseline by (time post treatment)” value in data set [1] (0.1 mg/kg, radiotracer of Example 3) is not above 7.5 h. Further, the “decrease in FST immobility scores” value in data set [2] worked out at 17%. The “effect in locomotor activity (open field)” value in data set [3] is recorded as “no confounding effect in locomotor activity”. The “average weight gain of tested rats” value in data set [4] is “not impacted”.

Source of the values: US20170349540A1, “HISTONE DEACETYLASE INHIBITORS” (The General Hospital Corporation, priority 2014, published 2017).
